Experimental findings from patent US6214805A, “RNase L activators and antisense oligonucleotides effective to treat RSV infections” (priority 1997, dated 2001) are described below.

The term IC50 denotes the concentration needed to halve the response being measured. One may read the EC90 as the point of the concentration-response curve where the effect stands at 90%. Low values mean an effect from little substance, high ones a need for much substance.

Where two headings read alike, the source gives them in different places.

Data set [1] relates to Hep-2 Cells. In words: Neutral red uptake assay of cytotoxicity in HEp-2 cells. Format: cell-based, human. Here is the method: (§1) Embryonic African green monkey kidney cells (MA-104) were obtained from BioWhittaker, Inc. (Walkersville, Md.). HEp-2 cells were propagated from a human epidermoid carcinoma of the larynx (American Type Culture Collection, ATCC; Rockville, Md.). The cells were grown in minimal essential medium. (MEM, Gibco-BRL, Gaitherburg, Md.) supplemented with 0.1% NaHCO3 and 10% fetal bovine serum (FBS, Hyclone Laboratories, Logan Utah.). When performing antiviral assays, serum was reduced to 2% and 50 μg/ml gentamicin (Sigma Chemical Company, St. Louis, Mo.) was added to the medium.
(§2) This assay was performed by a modified method as described by Cavenaugh et al. (Cavenaugh et al. 1990, Invest. New Drugs 8:347-354). Briefly, medium was removed from each well of a plate scored for CPE from a CPE inhibition assay, 0.2 ml of neutral red (0.034% in PSS) was added to each of the wells of that plate and the plate incubated for 2 hr at 37° C. in the dark. The neutral red solution was removed from the wells and the wells rinsed twice with PBS (pH 7.4). Equal volumes (0.1 ml) of absolute ethanol and Sorenson citrate buffer (0.1 M sodium citrate, 0.1 M HCI, pH 4.2) were mixed together and added to each well. Plates were incubated in the dark for 30 min. at room temperature to solubilize the dye. The plates were then gently mixed on a 96-well plate adapted vortexer for 1 min. Absorbances at 540 nm and 450 nm were read with a microplate reader (Bio-Tek EL 1309; Bio-Tek Instruments, Inc. Winooski, Vt.). Absorbance values were expressed as percents of untreated controls and EC50 and IC50 values were calculated by regression analysis.

For data set [2], the system named is RSV strain A2. The data set can be described thus: Virus yield reduction assay in HEp-2 cells. The following applies: compound added twice daily. It is filed as cell-based, Respiratory syncytial virus. As for the experimental part: EC50 & EC90 : concentration required to reduce virus (RSV strain
Both compounds were added to the cells twice daily.

The next data set has as its system MA-104 cells. In words: Cytotoxicity graded by morphological change in MA-104 cells. The following applies: MA-104 cells (Table 8); read-out: IC50 Conc. for 50% cytotoxicity grade by morphological change. Format: cell-based, African green monkey. Here is the method: as §1
(§3) Morphological changes due to compound cytotoxicity were graded on a scale of 0-5; grade 5 was defined as 100% cytotoxicity. The 50% cytotoxic dose (IC50 was calculated by regression analysis. A selective index (S.I.) was calculated for each compound [S.I.=(IC50)/(EC50 ].
IC50 Conc. for 50% cytotoxicity grade by morphological change (microM)
(§4) Determined in MA-104 cells, A2 strain RSV

Data set [3] relates to RSV Long (A). The data set can be described thus: Neutral red uptake assay in HEp-2 cells, RSV strain Long. Format: cell-based, Respiratory syncytial virus. The following applies: Table 12, neutral red, once a day for two days. As for the experimental part:
as §2
(§5) In this series, MP351 was added once a day for two days with fresh medium

Data set [4] concerns RSV strain A2. The data set can be described thus: Neutral red uptake assay of CPE inhibition in HEp-2 cells. The following applies: read-out: EC50. It is filed as cell-based, Respiratory syncytial virus. Here is the method: as §2
The subject of a further data set is A2 strain RSV. The data set can be described thus: CPE inhibition assay in MA-104 cells. Format: cell-based, Respiratory syncytial virus. Here is the method: (§6) The CPE inhibition assay used in this study was performed as described by Sidwell and Huffman (Sidwell et al., 1971, Appl. Microbiol. 22:7979-7801) with slight modifications. Varying concentrations of test compounds were added to each plate containing near confluent cell monolayers (1×10^5 cells/well) followed immediately by the addition of virus at a multiplicity of infection (MOI)=0.01, and then incubated at 37° C. On the following day, the medium from each plate was removed and fresh compound added. The assay was stopped at the end of the sixth day when the virus cytopathic effect in the virus infected, untreated control cells affected all cells. All compounds were assayed for virus inhibition in quadruplicate and for cytotoxicity in duplicate. For each compound, two wells were set aside as uninfected, untreated cell controls per test and four wells per test received virus only and represented controls for virus replication. […] For all CPE-based assays, the 50% effective concentration (EC50) was calculated by regression analysis using the means of the CPE ratings at each concentration of compound.
EC50 Concentration for 50% inhibition of virus replication (microM)
as §4

The test system of data set [5] is RSV CH18537 (B). The data set can be described thus: CPE inhibition assay in HEp-2 cells, RSV strain CH18537. The following applies: Table 12, CPE, once a day for two days. It is filed as cell-based, Respiratory syncytial virus. As for the experimental part: as §6, §5
Data set [6] deals with RSV CH18537 (B). In words: Neutral red uptake assay in HEp-2 cells, RSV strain CH18537. It is filed as cell-based, Respiratory syncytial virus. The following applies: Table 12, neutral red, once a day for two days. Here is the method:
as §2, §5

For data set [7], the system named is Hep-2 Cells. In words: Cytotoxicity by morphological changes in HEp-2 cells (CPE inhibition assay). It is filed as cell-based, human. Here is the method:
as §1, §3

Data set [8] relates to RSV 393 (clinical isolate). In words: CPE inhibition assay in HEp-2 cells, RSV 393. The following applies: Table 12, CPE, once a day for two days. Format: cell-based, Respiratory syncytial virus. Here is the method: as §6, §5
Data set [9] deals with RSV Long (A). The data set can be described thus: CPE inhibition assay in HEp-2 cells, RSV strain Long. Format: cell-based, Respiratory syncytial virus. The following applies: Table 12, CPE, once a day for two days. As for the experimental part: as §6, §5
Data set [10] relates to RSV strain A2. The data set can be described thus: CPE inhibition assay in HEp-2 cells. It is filed as cell-based, Respiratory syncytial virus. The following applies: Table 10, CPE; B.I.D. 3 days; HEp2; read-out: EC50. Here is the method: as §6, with “On the following day, the medium from each plate was removed and fresh compound added. The assay was stopped at the end of the sixth day when the virus cytopathic effect in the virus infected, untreated control cells affected all cells.” left out

For data set [11], the system named is RSV 393 (clinical isolate). The data set can be described thus: Neutral red uptake assay in HEp-2 cells, RSV 393. Format: cell-based, Respiratory syncytial virus. The following applies: Table 12, neutral red, once a day for two days. As for the experimental part:
as §2, §5

For another data set, the system named is RSV M2 RNA. In words: RT-PCR of M2 RNA from RSV-infected 9HTE cells. Format: cell-based, Respiratory syncytial virus. The following applies: RNA at 8 h post-infection, M.O.I.=10. As for the experimental part:
To determine if RSV RNA levels correlated with antiviral activity, RT-PCR analysis was performed on RNA isolated from RSV-infected and uninfected 9HTE cells with and without treatment with spA4 -antiRSV3'3'T/(8281-8299) or spA4 -antiRSV3'3'A/(8530-8547). An M2 RNA sequence in RSV (from nucleotides 7879 to 8465) was converted to cDNA and amplified by PCR. M2 RNA from the RSV-infected cells produced an RT-PCR DNA product that was clearly visible. […] Levels of GAPDH transcripts were similar in all of these RNA preparations.
RNA was collected from 2×10^5 9HTE cells at 8 h post-infection (M.O.I.=10) by RNAzol treatment as described by the manufacturer (Tel-Test, Inc, Freindswood, Tex.). RNA was isolated after 8 h to limit RSV replication to a single cycle. Isolated RNA (≈1 μg) was incubated with 100 pmoles of the appropriate downstream (-) primer listed below or 100 pmoles of random hexamer (used for glyceraldehyde-3-phosphatedehydrogenase, GAPDH, mRNA only). RNA and primers were heated to 70° C. for 10 min then cooled rapidly on ice for 5 min. […]
25 μl Hot-Start upper buffer contained 5 U Taq DNA polymerase (GibcoBRL) and 1/10th of the cDNA from the RT reaction. […] Aliquots of the RT/PCR mixtures were analyzed on 1% agarose/TBE gels.

The mark [12] stands for this setting: Table 11, neutral red, q.d. 3 days, HEp2.

Take 2-5A-L2-AsAsAsAATGGGGCAAAsTsAsA [MP351]: the concentration for half-maximal inhibition (IC50) is 3200 nM in the data set on Hep-2 Cells [1] (Table 11, neutral red, B.I.D. 2 days, HEp2); greater than 3200 nM with Hep-2 Cells [1] (Table 11, neutral red, B.I.D. 3 days, HEp2); 3200 nM with Hep-2 Cells [1] (Table 11, neutral red, B.I.D. 4 days, HEp2); greater than 3200 nM in the data set on Hep-2 Cells [1] (Table 11, neutral red, q.d. 1 day (added along with virus, never replenished), HEp2); 2000 nM in the data set on Hep-2 Cells [1] (setting [12]); greater than 3200 nM in the data set with Hep-2 Cells [1] (Table 11, neutral red, q.d. 4 days, HEp2). In addition, the IC50 is greater than 3200 nM with Hep-2 Cells [1] (Table 12, neutral red, test with 393 (clinical isolate), HEp-2); 2400 nM in the data set with Hep-2 Cells [1] (Table 12, neutral red, test with CH18537 (B), HEp-2); 2000 nM in the data set with Hep-2 Cells [1] (Table 12, neutral red, test with Long (A), HEp-2); greater than 3200 nM in the data set on Hep-2 Cells [1] (Table 13, neutral red, q.d., Day 0, HEp-2); greater than 3200 nM with Hep-2 Cells [1] (Table 13, neutral red, q.d., Day 1, HEp-2); 2200 nM with Hep-2 Cells [1] (Table 13, neutral red, q.d., Day 2, HEp-2). For the same substance, the IC50 was greater than 10000 nM with MA-104 cells; greater than 3200 nM in the data set with Hep-2 Cells [7] (Table 10, CPE, B.I.D. 2 days, HEp2); greater than 3200 nM in the data set on Hep-2 Cells [7] (Table 10, CPE, B.I.D. 3 days, HEp2); 3200 nM in the data set with Hep-2 Cells [7] (Table 10, CPE, B.I.D. 4 days, HEp2); greater than 3200 nM in the data set with Hep-2 Cells [7] (Table 10, CPE, q.d. 1 day (added along with virus, never replenished), HEp2); greater than 3200 nM in the data set with Hep-2 Cells [7] (Table 10, CPE, q.d. 3 days, HEp2). In addition, the IC50 in the data set with Hep-2 Cells [7] (Table 10, CPE, q.d. 4 days, HEp2) was greater than 3200 nM; in the data set on Hep-2 Cells [7] (Table 12, CPE, test with 393 (clinical isolate), HEp-2) it was greater than 3200 nM; with Hep-2 Cells [7] (Table 12, CPE, test with CH18537 (B), HEp-2) it was greater than 3200 nM; in the data set on Hep-2 Cells [7] (Table 12, CPE, test with Long (A), HEp-2), greater than 3200 nM; in the data set on Hep-2 Cells [7] (Table 13, CPE, q.d., Day 0, HEp-2), greater than 3200 nM; with Hep-2 Cells [7] (Table 13, CPE, q.d., Day 1, HEp-2) it was greater than 3200 nM. The IC50 in the data set on Hep-2 Cells [7] (Table 13, CPE, q.d., Day 2, HEp-2) is 2200 nM. The EC50 with RSV strain A2 [2] (virus yield reduced by 50%) came out at 320 nM; in the data set on RSV Long (A) [3], 400 nM; in the data set on RSV strain A2 [4] (setting [12]) it was 50 nM; with RSV strain A2 [4] (Table 13, neutral red, q.d., fresh compound up to Day 1 post infection, HEp-2) it was 320 nM; in the data set with A2 strain RSV (MA104 cells, CPE assay, added once or once daily for 2 days, read-out: EC50) it was 1000 nM; in the data set on A2 strain RSV (MA-104 cells, A2 strain RSV (Table 8), read-out: EC50 Concentration for 50% inhibition of virus replication) it was 300 nM. The EC50 is 100 nM in the data set on RSV CH18537 (B) [5]; 100 nM with RSV CH18537 (B) [6]; 300 nM in data set [8]; 300 nM with RSV Long (A) [9]; 40 nM with RSV strain A2 [10]; 1600 nM in data set [11]. In addition, in the data set on RSV strain A2 [2] (virus yield reduced by 90%), it took 1000 nM to reach the 90% level (EC90).

As to “spA2'p(A2'p)3 -[(Bu)p]2 -(5'cta tcg gtt aga taa ac3'-3'a5') [spA4-antiRSV3'-3'A/(8530-8547)]”, the “inhibition of levels of M2 RNA” value in the data set on RSV M2 RNA is listed as 17%.
